This passage reports Kb results from patent US9586962B2, “Disubstituted octahydropyrrolo [3,4-C] pyrroles as orexin receptor modulators” (Janssen Pharmaceutica NV, priority 2011, dated 2017).

SMILES strings stand for the structures.

For this experiment, the target named is human orexin 2 receptor (Homo sapiens (Human), UniProt O43614). The experiment in a line: Human orexin 2 receptor Ca2+ mobilization assay (FLIPR, PFSK cells, orexin B 100 nM). In kind it is cell-based. To be noted: modified Cheng-Prusoff correction, read-out: OR 2 Kb. In general terms: Calcium assays in cells follow changes in intracellular calcium, usually with a dye or a luminescent sensor.
Sequence of human orexin 2 receptor (O43614 whole entry): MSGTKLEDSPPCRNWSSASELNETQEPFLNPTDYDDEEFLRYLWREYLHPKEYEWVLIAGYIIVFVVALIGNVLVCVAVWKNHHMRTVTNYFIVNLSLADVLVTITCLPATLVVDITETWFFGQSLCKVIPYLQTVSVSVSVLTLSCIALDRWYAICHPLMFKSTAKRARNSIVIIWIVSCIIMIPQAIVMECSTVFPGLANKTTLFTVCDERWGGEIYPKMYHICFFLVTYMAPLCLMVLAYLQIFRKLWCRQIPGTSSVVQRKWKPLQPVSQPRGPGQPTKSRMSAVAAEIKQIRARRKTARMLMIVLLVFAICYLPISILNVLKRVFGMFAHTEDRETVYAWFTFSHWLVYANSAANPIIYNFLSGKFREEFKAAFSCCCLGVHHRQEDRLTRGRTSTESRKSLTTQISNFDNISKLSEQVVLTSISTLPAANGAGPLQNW
`COc1cc(OC)nc(N2CC3CN(C(=O)c4ccc(F)cc4-n4nccn4)CC3C2)n1` (stereo not drawn) [Example 160, 2-(4,6-Dimethoxypyrimidin-2-yl)-5-{[4-fluoro-2-(2H-1,2,3-triazol-2-yl)phenyl]carbonyl}octahydropyrrolo[3,4-c]pyrrole]: the Kb was found to be 20 nM.
For the compound `COc1ccc(C(=O)N2CC3CN(c4nc5ccc(Cl)cc5s4)CC3C2)c(OC)c1` (stereo not drawn) [Example 163, 6-Chloro-2-{5-[(2,4-dimethoxyphenyl)carbonyl]hexahydropyrrolo[3,4-c]pyrrol-2(1H)-yl}-1,3-benzothiazole], the Kb was 501 nM.
For `O=C(c1ccccc1-c1ccccc1)N1CC2CN(c3nccc(-c4ccccc4)n3)CC2C1` (stereo not drawn) [Example 164, 2-(Biphenyl-2-ylcarbonyl)-5-(4-phenylpyrimidin-2-yl)octahydropyrrolo[3,4-c]pyrrole] the value was 200 nM.
As to `COc1ccc(C(=O)N2CC3CN(c4nccc(-c5ccccc5)n4)CC3C2)c(OC)c1` (stereo not drawn) [Example 167, 2-[(2,4-Dimethoxyphenyl)carbonyl]-5-(4-phenylpyrimidin-2-yl)octahydropyrrolo[3,4-c]pyrrole], the Kb was 631 nM.
For the compound `O=C(c1ccccc1-c1ccccc1)N1CC2CN(c3cnc4ccccc4n3)CC2C1` (stereo not drawn) [Example 168, 2-[5-(Biphenyl-2-ylcarbonyl)hexahydropyrrolo[3,4-c]pyrrol-2(1H)-yl]quinoxaline], the Kb was 126 nM.
Regarding `O=C(c1ccccc1-c1ccccc1)N1CC2CN(c3nc4ccc(F)cc4s3)CC2C1` (stereo not drawn) [Example 176, 2-[5-(Biphenyl-2-ylcarbonyl)hexahydropyrrolo[3,4-c]pyrrol-2(1H)-yl]-6-fluoro-1,3-benzothiazole], the Kb worked out at 158 nM.
In the case of `Cc1cc(N2CC3CN(C(=O)c4ccccc4-c4ccccc4)CC3C2)nc2ccccc12` (stereo not drawn) [Example 178, 2-[5-(Biphenyl-2-ylcarbonyl)hexahydropyrrolo[3,4-c]pyrrol-2(1H)-yl]-4-methylquinoline], the Kb stood at 126 nM.
For the compound `Cc1cc(N2CC3CN(C(=O)c4cc(F)ccc4-c4ncccn4)CC3C2)nc(C(F)(F)F)n1` (stereo not drawn) [Example 204, (5-Fluoro-2-pyrimidin-2-yl-phenyl)-[5-(6-methyl-2-trifluoromethyl-pyrimidin-4-yl)-hexahydro-pyrrolo[3,4-c]pyrrol-2-yl]-methanone], the Kb stood at 20 nM.
Regarding `Cc1cncc(N2CC3CN(C(=O)c4ccccc4-n4nccn4)CC3C2)n1` (stereo not drawn) [Example 211, [5-(6-Methyl-pyrazin-2-yl)-hexahydro-pyrrolo[3,4-c]pyrrol-2-yl]-(2-[1,2,3]triazol-2-yl-phenyl)-methanone], the Kb was 25 nM.
On to `Cc1cnc(C)c(N2CC3CN(C(=O)c4cc(F)ccc4-c4ncccn4)CC3C2)n1` (stereo not drawn) [Example 212, [5-(3,6-Dimethyl-pyrazin-2-yl)-hexahydro-pyrrolo[3,4-c]pyrrol-2-yl]-(5-fluoro-2-pyrimidin-2-yl-phenyl)-methanone], for which the Kb came to 32 nM.
In the case of `Cc1cnc(C)c(N2CC3CN(C(=O)c4ccccc4-c4ncn[nH]4)CC3C2)n1` (stereo not drawn) [Example 213, [5-(3,6-Dimethyl-pyrazin-2-yl)-hexahydro-pyrrolo[3,4-c]pyrrol-2-yl]-[2-(2H-[1,2,4]triazol-3-yl)-phenyl]-methanone], the Kb worked out at 50 nM.
On to `Cc1cc(C)nc(N2CC3CN(C(=O)c4ccc(F)cc4-c4ncccn4)CC3C2)n1` (stereo not drawn) [Example 231, (5-(4,6-Dimethylpyrimidin-2-yl)hexahydropyrrolo[3,4-c]pyrrol-2(1H)-yl)(4-fluoro-2-(pyrimidin-2-yl)phenyl)methanone], for which the Kb was determined as 7 nM.
Take `Cc1cc(C)nc(N2CC3CN(C(=O)c4cccc(F)c4I)CC3C2)n1` (stereo not drawn) [Example 232, (5-(4,6-Dimethylpyrimidin-2-yl)hexahydropyrrolo[3,4-c]pyrrol-2(1H)-yl)(3-fluoro-2-iodophenyl)methanone]: the Kb is 7 nM.
Turning to `Cc1cc(C)nc(N2CC3CN(C(=O)c4cccnc4-c4ccn[nH]4)CC3C2)n1` (stereo not drawn) [Example 237, (2-(1H-Pyrazol-5-yl)pyridin-3-yl)(5-(4,6-dimethylpyrimidin-2-yl)hexahydropyrrolo[3,4-c]pyrrol-2(1H)-yl)methanone], the Kb amounted to 18 nM.
With `Cc1nc(N2CC3CN(C(=O)c4cccc(F)c4-c4ncccn4)CC3C2)nc(C)c1C` (stereo not drawn) [Example 239, (3-Fluoro-2-(pyrimidin-2-yl)phenyl)(5-(4,5,6-trimethylpyrimidin-2-yl)hexahydropyrrolo[3,4-c]pyrrol-2(1H)-yl)methanone] the figure was 4 nM; with `Cc1nc(N2CC3CN(C(=O)c4cccc(F)c4-n4nccn4)CC3C2)nc(C)c1C` (stereo not drawn) [Example 240, (3-Fluoro-2-(2H-1,2,3-triazol-2-yl)phenyl)(5-(4,5,6-trimethylpyrimidin-2-yl)hexahydropyrrolo[3,4-c]pyrrol-2(1H)-yl)methanone], 3 nM.
Take `COc1ccc(-n2nccn2)c(C(=O)N2CC3CN(c4nc(C)c(C)c(C)n4)CC3C2)c1` (stereo not drawn) [Example 241, (5-Methoxy-2-(2H-1,2,3-triazol-2-yl)phenyl)(5-(4,5,6-trimethylpyrimidin-2-yl)hexahydropyrrolo[3,4-c]pyrrol-2(1H)-yl)methanone]: the Kb came out at 7 nM.
For `O=C(c1cccc(F)c1-n1nccn1)N1CC2CN(c3ncc4cc(F)ccc4n3)CC2C1` (stereo not drawn) [Example 242, (3-Fluoro-2-(2H-1,2,3-triazol-2-yl)phenyl)(5-(6-fluoroquinazolin-2-yl)hexahydropyrrolo[3,4-c]pyrrol-2(1H)-yl)methanone] the value was 13 nM; for `O=C(c1cccc(F)c1-c1ncccn1)N1CC2CN(c3ncc4cc(F)ccc4n3)CC2C1` (stereo not drawn) [Example 243, (3-Fluoro-2-(pyrimidin-2-yl)phenyl)(5-(6-fluoroquinazolin-2-yl)hexahydropyrrolo[3,4-c]pyrrol-2(1H)-yl)methanone], 6 nM; for `COc1ccc(-n2nccn2)c(C(=O)N2CC3CN(c4cnc5cc(F)c(F)cc5n4)CC3C2)c1` (stereo not drawn) [Example 245, (5-(6,7-Difluoroquinoxalin-2-yl)hexahydropyrrolo[3,4-c]pyrrol-2(1H)-yl)(5-methoxy-2-(2H-1,2,3-triazol-2-yl)phenyl)methanone], 15 nM.
For `O=C(c1c(F)cccc1-n1nccn1)N1CC2CN(c3cnc4cc(F)c(F)cc4n3)CC2C1` (stereo not drawn) [Example 246, (5-(6,7-Difluoroquinoxalin-2-yl)hexahydropyrrolo[3,4-c]pyrrol-2(1H)-yl)(2-fluoro-6-(2H-1,2,3-triazol-2-yl)phenyl)methanone], the Kb is 11 nM.
Take `COc1ccc(C(=O)N2CC3CN(c4nc(C)cc(C)n4)CC3C2)c(-c2ncccn2)c1` (stereo not drawn) [Example 272, (5-(4,6-Dimethylpyrimidin-2-yl)hexahydropyrrolo[3,4-c]pyrrol-2(1H)-yl)(4-methoxy-2-(pyrimidin-2-yl)phenyl)methanone]: the Kb came to 7 nM.
With `Cc1cc(C)nc(N2CC3CN(C(=O)c4ccccc4OC(F)(F)F)CC3C2)n1` (stereo not drawn) [Example 274, (5-(4,6-Dimethylpyrimidin-2-yl)hexahydropyrrolo[3,4-c]pyrrol-2(1H)-yl)(2-(trifluoromethoxy)phenyl)methanone], the Kb came to 16 nM.
Regarding `Cc1cc(C)nc(N2CC3CN(C(=O)c4cccc(F)c4-c4ncccn4)CC3C2)n1` (stereo not drawn) [Example 283, 2-(4,6-Dimethylpyrimidin-2-yl)-5-[(3-fluoro-2-pyrimidin-2-ylphenyl)carbonyl]octahydropyrrolo[3,4-c]pyrrole], the Kb was 2 nM.
